{
  "source": "paper PMC3350483",
  "about": "“Versatile Toolbox for High Throughput Biochemical and Functional Studies with Fluorescent Fusion Proteins” (PLoS ONE, 2012)",
  "key": {"[1]": {"system": "GFP-Cbx1", "assay": "In vitro histone-tail peptide binding assay on GFP-multiTrap", "parameters": "species or system mouse", "conditions": "for Binding of GFP-Cbx1 to histone-tail peptide (binding ratios, Figure 2A): 0.15 µM TAMRA-labeled peptide per well, RT 20 min", "method": "In the next assay we determined whether this approach is also feasible to quantify binding affinities between GFP-proteins and peptides or DNA. First, we analyzed histone-tail peptide binding specificities of the chromobox homolog 1, Cbx1, fused with a N-terminal GFP-tag using the GFP-multiTrap. GFP-Cbx1 was purified from mammalian cell lysate, as described above, and the bound protein was incubated with TAMRA-labeled histone-tail peptides. A set of 20 different histone-tail peptides (Table 1) was used in technical triplicates in parallel and GFP served as negative control (GFP data is not shown). After removal of unbound substrate the amounts of protein and histone-tail peptide were determined by fluorescence intensity measurements using a micro plate reader. Binding ratios were calculated by dividing the concentration of bound histone-tail peptide by the concentration of GFP fusion (Figure 2A). […] In addition to fluorescent quantification via a micro plate reader, we scanned the TAMRA signals using a Typhoon scanner (Figure 2B). […] These differences could result from different sensitivities of both methods. […] We incubated GFP-Cbx1 with TAMRA-labeled H3K9me3 in parallel with either biotinylated H3K9me3 or H3K9ac histone-tail peptides. […] In contrast, we could not detect a significant difference in binding ratios between di- and trimethylated H3K9 histone tail peptides using a micro plate reader (Figure 2A). One explanation could be the use of different expression systems. While the binding ratios for the HP1β chromo domain were determined using bacterially expressed protein we used a fluorescent fusion protein derived from mammalian cells. […] To determine the binding affinity of GFP-Cbx1 to H3K9me3, we varied the input amount of histone-tail peptide. We plotted the amount of bound histone-tail peptide as a function of total peptide and fitted the values using GraphPad Prism and nonlinear regression (Figure 2D). The amount of bound H3K9me3 histone-tail peptide increases linearly and saturates at approximately 500 nM of input peptide. […] Here, the input amount of protein/substrate was measured in solution, whereas the bound fraction represents one value on the 96-well surface.\nFor purification, 100 µL or 50 µL precleared cellular lysate for full-area plates or half-area plates, respectively, was added per well and incubated for 2 hours at 4°C on a GFP-multiTrap plate by continuous shaking. After removing the supernatant, wells were washed twice with 100 µL of washing buffer (WB; 20 mM Tris-HCl pH 7.5, 100–300 mM NaCl, 0.5 mM EDTA) and 100 µL of IP or dilution buffer was added for measurement. The amounts of bound protein were determined by fluorescence intensity measurements with a Tecan Infinite M1000 plate reader (Tecan, Austria). Wavelengths for excitation and emission of GFP are 490±10 nm and 511±10 nm, for RFP are 586±5 nm and 608±10 nm and for YFP 525±5 nm and 538±5 nm, respectively. The concentration of proteins was calculated using calibration curves that were determined by measuring the fluorescence signal of known concentrations of purified GFP, RFP and YFP. […] Bound proteins were eluted with 300 mM Glycin pH 2.5 and subsequently buffered with 1 M Tris pH 7.5. Elution fractions were added to SDS-containing sample buffer (referred to as Bound (B)). Bound proteins were visualized by immunoblotting using the anti-GFP mouse monoclonal antibody (Roche, Germany).\nThe in vitro histone-tail binding assay was performed as described previously. After one-step purification of GFP fusion proteins the wells were blocked with 100 µL 3% milk solved in TBS-T (0.075% Tween) for 30 minutes at 4°C on a plate vortex, shaking gently. After blocking, the wells were equilibrated in 50 µL IP buffer supplemented with 0.05% Tween. […]"}, "[2]": {"molecular_target": "HP1β chromo domain", "conditions": "bacterially expressed protein; ref [11], [12]; read-out: binding affinities; cited from earlier work"}, "[3]": {"molecular_target": "GFP-PBD (green fluorescent PCNA-binding domain of Dnmt1)", "assay": "GFP-multiTrap plate binding assay, fluorescence read-out; GFP fusion held on the GFP-multiTrap plate, blocked with 3% milk, incubated with HEK293T cellular extract holding the RFP fusion for 30 min at RT; molar ratio of bound RFP fusion over GFP fusion by plate reader"}, "[4]": {"system": "GFP-Cbx1", "assay": "Competition assay between TAMRA-labeled H3K9me3 and biotinylated histone-tail peptides", "format": "binding, mouse", "conditions": "biotinylated peptide added in parallel; Figure 2C; three independent experiments; **P<0.003", "method": "In the next assay we determined whether this approach is also feasible to quantify binding affinities between GFP-proteins and peptides or DNA. First, we analyzed histone-tail peptide binding specificities of the chromobox homolog 1, Cbx1, fused with a N-terminal GFP-tag using the GFP-multiTrap. GFP-Cbx1 was purified from mammalian cell lysate, as described above, and the bound protein was incubated with TAMRA-labeled histone-tail peptides. A set of 20 different histone-tail peptides (Table 1) was used in technical triplicates in parallel and GFP served as negative control (GFP data is not shown). After removal of unbound substrate the amounts of protein and histone-tail peptide were determined by fluorescence intensity measurements using a micro plate reader. Binding ratios were calculated by dividing the concentration of bound histone-tail peptide by the concentration of GFP fusion (Figure 2A). […] In addition to fluorescent quantification via a micro plate reader, we scanned the TAMRA signals using a Typhoon scanner (Figure 2B). […] In contrast, we could not detect a significant difference in binding ratios between di- and trimethylated H3K9 histone tail peptides using a micro plate reader (Figure 2A). […] While the binding ratios for the HP1β chromo domain were determined using bacterially expressed protein we used a fluorescent fusion protein derived from mammalian cells. […]"}, "[5]": {"molecular_target": "GFP-Cbx1 (chromobox homolog 1 fused with an N-terminal GFP-tag) (mouse) (UniProt P83917)", "sequence (P83917 whole entry, the tested form may be a part)": "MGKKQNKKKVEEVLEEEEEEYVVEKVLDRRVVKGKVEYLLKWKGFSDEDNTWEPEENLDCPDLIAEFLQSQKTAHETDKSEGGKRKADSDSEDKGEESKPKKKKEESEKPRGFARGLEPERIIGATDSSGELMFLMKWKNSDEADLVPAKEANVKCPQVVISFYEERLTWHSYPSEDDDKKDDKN", "assay": "GFP-multiTrap plate binding assay, fluorescence read-out; GFP fusion held on the GFP-multiTrap 96-well plate, blocked with 3% milk; 0.15 µM TAMRA-labeled histone-tail peptide, 20 min at RT, IP buffer (20 mM Tris-HCl pH 7.5, 150 mM NaCl, 0.5 mM EDTA) with 0.05% Tween; ratio of bound peptide over GFP fusion by plate reader"}, "[6]": {"molecular_target": "Cbx1 (UniProt P83917)", "assay": "TAMRA-peptide binding to GFP-multiTrap-immobilised GFP-Cbx1", "conditions": "reference: H3K9me3 peptide; sites S10"}, "[7]": {"conditions": "plate reader, three independent experiments"}},
  "data": [
    {"substance": "ARTKQTAR X2 S TGGKAPRKQLK [H3K9me2, TAMRA-labeled histone H3 tail peptide, dimethylated Lysine 9]", "values": [
      {"measurement": "Binding of GFP-Cbx1 to histone-tail peptide (binding ratios, Figure 2A)", "setting": "[1]; [7]", "result": "preferentially binds"},
      {"measurement": "TAMRA signals of bound peptide by Typhoon scanner (Figure 2B)", "setting": "[1]; fluorescence scanner", "result": "detected TAMRA signals"},
      {"measurement": "Kd", "setting": "[2]", "result": 7, "unit": "µM"}
    ]},
    {"substance": "mRFP", "values": [
      {"measurement": "relative binding ratio (substrate/GFP fusion)", "setting": "[3]", "result": 0.005}
    ]},
    {"substance": "biotinylated H3K9me3: biotinylated H3K9me3 histone-tail peptide used as competitor", "values": [
      {"measurement": "Effect of competitor on binding of Cbx1 to TAMRA-labeled H3K9me3", "setting": "[4]", "result": "significantly decreased"}
    ]},
    {"substance": "H3 (1–20) histone-tail peptide, TAMRA-labeled", "values": [
      {"measurement": "relative binding ratio (substrate/GFP fusion)", "setting": "[5]", "result": 0.0772}
    ]},
    {"substance": "histone H3 1-20 (from UniProt P68431) H3K9me3S10p peptide", "values": [
      {"measurement": "binding against the reference", "setting": "[6]", "result": "lost"}
    ]},
    {"substance": "biotinylated H3K9ac: biotinylated H3K9ac histone-tail peptide used as competitor", "values": [
      {"measurement": "Effect of competitor on binding of Cbx1 to TAMRA-labeled H3K9me3", "setting": "[4]", "result": "did not alter"}
    ]},
    {"substance": "ART K QTARKSTGGKAPRKQLK [H3 (1–20), TAMRA-labeled unmodified histone H3 tail peptide, residues 1–20]", "values": [
      {"measurement": "Binding of Cbx1 with varied input amount of peptide (Figure 2D)", "setting": "[1]; varied input of TAMRA-labeled peptide, plate reader, two independent experiments for H3", "result": "could not detect any binding"}
    ]},
    {"substance": "H3K9me3 histone-tail peptide, TAMRA-labeled", "values": [
      {"measurement": "relative binding ratio (substrate/GFP fusion)", "setting": "[5]", "result": 0.572}
    ]},
    {"substance": "ARTKQTAR X3 Z2 TGGKAPRKQLK [H3K9me3S10p, TAMRA-labeled H3 tail peptide, trimethylated Lysine 9 and phosphorylated Serine 10]", "values": [
      {"measurement": "Binding of GFP-Cbx1 to histone-tail peptide (binding ratios, Figure 2A)", "setting": "[1]; [7]", "result": "prevents binding"}
    ]},
    {"substance": "ARTKQTAR X3 S TGGKAPRKQLK [H3K9me3, TAMRA-labeled histone H3 tail peptide, trimethylated Lysine 9]", "values": [
      {"measurement": "Binding of GFP-Cbx1 to histone-tail peptide (binding ratios, Figure 2A)", "setting": "[1]; [7]", "result": "preferentially binds"},
      {"measurement": "TAMRA signals of bound peptide by Typhoon scanner (Figure 2B)", "setting": "[1]; fluorescence scanner", "result": "detected TAMRA signals"},
      {"measurement": "Preference in binding by fluorescence scanner", "setting": "[1]; fluorescence scanner, no difference seen with micro plate reader", "result": "preference for tri- over dimethylated H3K9"},
      {"measurement": "Input peptide at which bound histone-tail peptide saturates", "setting": "[1]; varied input of TAMRA-labeled peptide, Figure 2D, nonlinear regression, three independent experiments", "result": "approximately 500 nM"},
      {"measurement": "Kd", "setting": "[2]", "result": 2.5, "unit": "µM"}
    ]}
  ]
}
